From US11753407B2, “Compounds for treating spinal muscular atrophy” (PTC Therapeutics, Inc., priority 2012, dated 2023)

Assays:
[1] = test system: SMN2 minigene mRNA (SMN2-A minigene) in HEK293H cells; test: SMN2 minigene mRNA splicing RT-qPCR assay in cultured cells; format: cell-based, human; details: Homo sapiens, HEK293-H; concentration increasing full length SMN2 mRNA 1.5-fold relative to vehicle-treated cells; HEK293H cells with SMN2-A minigene, 24 hours, 7-point concentration data; read-out: EC1.5x for production of full length SMN2 mRNA
Procedure, shortened: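 Stable SMN2-A minigene HEK293H; cpd 7-pt 3.16-fold series, 200× in DMSO, 24 h, 37 °C, n=2. Lysates → multiplex RT-qPCR (minigene FL + GAPDH), efficiency-corrected ΔΔCt vs vehicle. EC1.5× = 1.5-fold FL mRNA gain.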

[2] = test system: Smn protein in SMA patient fibroblast cells (GM03813); test: Smn protein assay in cultured cells (SMN HTRF); format: cell-based, human; details: SMA patient fibroblast cells, 48 hours; for EC1.5x for Smn protein expression: 7-point concentration curve, SMN HTRF, concentration producing 1.5 times Smn protein vs DMSO vehicle control; for maximum fold (Fold) increase of Smn protein: 7-point concentration data, fold relative to vehicle control
Procedure, shortened: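 Fibroblasts, SMA patient; 5,000 cells/well; 7-pt curve, 3.16-fold serial dilution; 48 h, 37 °C, 5% CO2; RIPA lysis 1 h RT; anti-SMN d2 + kryptate overnight RT; HTRF 665/620 nm; fold vs DMSO; EC1.5×, max fold.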

Row | melting point | Structure (SMILES) | EC (1.5-fold increase) [1] | EC1.5x for Smn protein expression [2] | maximum fold (Fold) increase of Smn protein [2]
1 | 256 to 258 °C | CN1CCC(c2ccc3nc(-c4ccc5nn(C)cc5c4)cc(=O)n3c2)CC1 [Compound 578, 2-(2-methyl-2H-indazol-5-yl)-7-(1-methylpiperidin-4-yl)-4H-pyrido[1,2-a]pyrimidin-4-one] | < 0.1 µM | **** (an EC1.5x≤0.3 μM is indicated by four stars (****)) | ***** (a fold increase >1.65 is indicated by five stars (*****))
2 | 277 to 280 °C | Cc1cn2cc(-c3cc(=O)n4cc(C5CCN(C)CC5)ncc4n3)ccc2n1 [Compound 579, 2-(2-methylimidazo[1,2-a]pyridin-6-yl)-7-(1-methylpiperidin-4-yl)-4H-pyrazino[1,2-a]pyrimidin-4-one] | 0.1 to 0.3 µM | *** (an EC1.5× between >0.3 μM and ≤1 μM is indicated by three stars (***)) | ***** (a fold increase >1.65 is indicated by five stars (*****))
3 | 255 to 258 °C | CCN1CCC(c2cn3c(=O)cc(-c4ccc5nc(C)cn5c4)nc3cn2)CC1 [Compound 580, 7-(1-ethylpiperidin-4-yl)-2-(2-methylimidazo[1,2-a]pyridin-6-yl)-4H-pyrazino[1,2-a]pyrimidin-4-one] | < 0.1 µM | *** (an EC1.5× between >0.3 μM and ≤1 μM is indicated by three stars (***)) | ***** (a fold increase >1.65 is indicated by five stars (*****))
4 | 250 to 252 °C | Cc1cn2cc(-c3cc(=O)n4cc(C5CCN(CCO)CC5)ncc4n3)ccc2n1 [Compound 581, 7-[1-(2-hydroxyethyl)piperidin-4-yl]-2-(2-methylimidazo[1,2-a]pyridin-6-yl)-4H-pyrazino[1,2-a]pyrimidin-4-one] | 0.1 to 0.3 µM | *** (an EC1.5× between >0.3 μM and ≤1 μM is indicated by three stars (***)) | ***** (a fold increase >1.65 is indicated by five stars (*****))
5 | 250 to 259 °C | Cc1cn2nc(-c3cc(=O)n4cc(N5CCC(N(C)CCO)CC5)cc(C)c4n3)cc2c(C)n1 [Compound 582, 2-(4,6-dimethylpyrazolo[1,5-a]pyrazin-2-yl)-7-{4-[(2-hydroxyethyl)(methyl)amino]piperidin-1-yl}-9-methyl-4H-pyrido[1,2-a]pyrimidin-4-one] | < 0.1 µM | **** (an EC1.5x≤0.3 μM is indicated by four stars (****)) | ***** (a fold increase >1.65 is indicated by five stars (*****))
6 | 231 to 241 °C | CCCNC1CCN(c2cc(C)c3nc(-c4cc5c(C)nc(C)cn5n4)cc(=O)n3c2)CC1 [Compound 583, 2-(4,6-dimethylpyrazolo[1,5-a]pyrazin-2-yl)-9-methyl-7-[4-(propylamino)piperidin-1-yl]-4H-pyrido[1,2-a]pyrimidin-4-one] | < 0.1 µM | **** (an EC1.5x≤0.3 μM is indicated by four stars (****)) | ***** (a fold increase >1.65 is indicated by five stars (*****))
7 | 200 to 203 °C | Cc1cn2nc(-c3cc(=O)n4cc(N5CCC(C)(N)CC5)ccc4n3)cc2c(C)n1 [Compound 584, 7-(4-amino-4-methylpiperidin-1-yl)-2-(4,6-dimethylpyrazolo[1,5-a]pyrazin-2-yl)-4H-pyrido[1,2-a]pyrimidin-4-one] | < 0.1 µM | **** (an EC1.5x≤0.3 μM is indicated by four stars (****)) | ***** (a fold increase >1.65 is indicated by five stars (*****))

Continued, molecule first:

Row | Structure (SMILES) | melting point | EC (1.5-fold increase) [1] | EC1.5x for Smn protein expression [2] | maximum fold (Fold) increase of Smn protein [2]
8 | CN1CCC(c2cn3c(=O)cc(-c4ccc5nn(C)cc5c4)nc3cn2)CC1 [Compound 567, 2-(2-methyl-2H-indazol-5-yl)-7-(1-methylpiperidin-4-yl)-4H-pyrazino[1,2-a]pyrimidin-4-one] | 275 to 277 °C | 0.1 to 0.3 µM | *** (an EC1.5× between >0.3 μM and ≤1 μM is indicated by three stars (***)) | **** (a fold increase between >1.5 and ≤1.65 is indicated by four stars (****))
9 | CCN1CCC(c2cn3c(=O)cc(-c4ccc5nn(C)cc5c4)nc3cn2)CC1 [Compound 568, 7-(1-ethylpiperidin-4-yl)-2-(2-methyl-2H-indazol-5-yl)-4H-pyrazino[1,2-a]pyrimidin-4-one] | 198 to 200 °C | < 0.1 µM | **** (an EC1.5x≤0.3 μM is indicated by four stars (****)) | ***** (a fold increase >1.65 is indicated by five stars (*****))
10 | Cn1cc2cc(-c3cc(=O)n4cc(C5CCN(CCO)CC5)ncc4n3)ccc2n1 [Compound 569, 7-[1-(2-hydroxyethyl)piperidin-4-yl]-2-(2-methyl-2H-indazol-5-yl)-4H-pyrazino[1,2-a]pyrimidin-4-one] | 230 to 232 °C | < 0.1 µM | **** (an EC1.5x≤0.3 μM is indicated by four stars (****)) | ***** (a fold increase >1.65 is indicated by five stars (*****))
11 | Cc1cn2nc(-c3cc(=O)n4cc(N5CCC(CN(C)C)CC5)ccc4n3)cc2c(C)n1 [Compound 570, 7-{4-[(dimethylamino)methyl]piperidin-1-yl}-2-(4,6-dimethylpyrazolo[1,5-a]pyrazin-2-yl)-4H-pyrido[1,2-a]pyrimidin-4-one] | 206 to 208 °C | 0.3 to 1 µM | ** (an EC1.5× between >1 μM and ≤3 μM is indicated by two stars (**)) | **** (a fold increase between >1.5 and ≤1.65 is indicated by four stars (****))
12 | Cc1cn2nc(-c3cc(=O)n4cc(N5CCC(CN6CCCC6)CC5)ccc4n3)cc2c(C)n1 [Compound 571, 2-(4,6-dimethylpyrazolo[1,5-a]pyrazin-2-yl)-7-[4-(pyrrolidin-1-ylmethyl)piperidin-1-yl]-4H-pyrido[1,2-a]pyrimidin-4-one] | 177 to 180 °C | 0.3 to 1 µM | ** (an EC1.5× between >1 μM and ≤3 μM is indicated by two stars (**)) | **** (a fold increase between >1.5 and ≤1.65 is indicated by four stars (****))
13 | Cc1cn2nc(-c3cc(=O)n4cc(N5CCC(CN6CCCCC6)CC5)ccc4n3)cc2c(C)n1 [Compound 572, 2-(4,6-dimethylpyrazolo[1,5-a]pyrazin-2-yl)-7-[4-(piperidin-1-ylmethyl)piperidin-1-yl]-4H-pyrido[1,2-a]pyrimidin-4-one] | 192 to 195 °C | 0.3 to 1 µM | ** (an EC1.5× between >1 μM and ≤3 μM is indicated by two stars (**)) | **** (a fold increase between >1.5 and ≤1.65 is indicated by four stars (****))
14 | COc1ccc(-c2cc(=O)n3cc(N4CCC(CN(C)C)CC4)ccc3n2)cc1OC [Compound 573, 2-(3,4-dimethoxyphenyl)-7-{4-[(dimethylamino)methyl]piperidin-1-yl}-4H-pyrido[1,2-a]pyrimidin-4-one] | 182 to 184 °C | 0.3 to 1 µM | ** (an EC1.5× between >1 μM and ≤3 μM is indicated by two stars (**)) | **** (a fold increase between >1.5 and ≤1.65 is indicated by four stars (****))
15 | COc1ccc(-c2cc(=O)n3cc(N4CCC(CN5CCCC5)CC4)ccc3n2)cc1OC [Compound 574, 2-(3,4-dimethoxyphenyl)-7-[4-(pyrrolidin-1-ylmethyl)piperidin-1-yl]-4H-pyrido[1,2-a]pyrimidin-4-one] | 194 to 196 °C | 0.3 to 1 µM | – | ** (a fold increase between >1.2 and ≤1.35 is indicated by two stars (**))
16 | COc1ccc(-c2cc(=O)n3cc(N4CCC(CN5CCCCC5)CC4)ccc3n2)cc1OC [Compound 575, 2-(3,4-dimethoxyphenyl)-7-[4-(piperidin-1-ylmethyl)piperidin-1-yl]-4H-pyrido[1,2-a]pyrimidin-4-one] | 184 to 186 °C | 0.3 to 1 µM | – | *** (a fold increase between >1.35 and ≤1.5 is indicated by three stars (***))
17 | Cc1cn2cc(-c3cc(=O)n4cc(C5CCN(CCO)CC5)ccc4n3)ccc2n1 [Compound 576, 7-[1-(2-hydroxyethyl)piperidin-4-yl]-2-(2-methylimidazo[1,2-a]pyridin-6-yl)-4H-pyrido[1,2-a]pyrimidin-4-one] | 200 to 202 °C | < 0.1 µM | **** (an EC1.5x≤0.3 μM is indicated by four stars (****)) | ***** (a fold increase >1.65 is indicated by five stars (*****))
18 | Cc1cn2cc(-c3cc(=O)n4cc(C5=CCN(CCO)CC5)ccc4n3)ccc2n1 [Compound 577, 7-[1-(2-hydroxyethyl)-1,2,3,6-tetrahydropyridin-4-yl]-2-(2-methylimidazo[1,2-a]pyridin-6-yl)-4H-pyrido[1,2-a]pyrimidin-4-one] | 248 to 250 °C | < 0.1 µM | **** (an EC1.5x≤0.3 μM is indicated by four stars (****)) | ***** (a fold increase >1.65 is indicated by five stars (*****))
